# Laboratory results published in ChEMBL document CHEMBL3400005, “Thermodynamic equilibrium solubility measurements in simulated fluids by 96-well plate method in early drug discovery” (Bioorg Med Chem Lett, 2015).
# Experiments:
# physchem [1] = assay: physchem
# physchem [2] = conditions: pH 7.4
# physchem [3] = conditions: pH 1.2
# physchem [4] = conditions: pH 6.8
# physchem [5] = assay: physchem; remark: listed apart in the source
# physchem [6] = conditions: pH 7.4; remark: listed apart in the source
# physchem [7] = conditions: pH 1.2; remark: listed apart in the source
# physchem [8] = conditions: pH 6.8; remark: listed apart in the source
# physchem [9] = assay: physchem; remark: listed apart in the source
SMILES,solubility thermodynamic at 4 h (physchem [1]; water) [µM],solubility thermodynamic at 4 h (physchem [2]; PBS) [µM],solubility thermodynamic at 4 h (physchem [3]; simulated gastric fluid) [µM],solubility thermodynamic at 4 h (physchem [4]; simulated intestinal fluid) [µM],solubility thermodynamic (physchem [9]) [µM],other results
CCCc1nc2c(C)cc(-c3nc4ccccc4n3C)cc2n1Cc1ccc(-c2ccccc2C(=O)O)cc1,3.89,7.76,38.9,1.95,–,solubility thermodynamic at 24 h (physchem [5]; water): 29.5 µM; solubility thermodynamic at 24 h (physchem [6]; PBS): 6.46 µM; solubility thermodynamic at 24 h (physchem [7]; simulated gastric fluid): 40.7 µM; solubility thermodynamic at 24 h (physchem [8]; simulated intestinal fluid): 2.29 µM
CC(C(=O)[O-])c1ccc(-c2ccccc2)c(F)c1.[Na+] (stereo not given),331,162,33.1,4.07,–,–
CC(=O)N[C@@H](CS)C(=O)O [ACETYLCYSTEINE],24.5,12.3,6.17,6.17,–,–
CCCSc1ccc2nc(NC(=O)OC)[nH]c2c1 [ALBENDAZOLE],0.38,1.91,151,1.91,0.49,solubility thermodynamic at 24 h (physchem [5]; water): 0.049 µM; solubility thermodynamic at 24 h (physchem [6]; PBS): 12.9 µM; solubility thermodynamic at 24 h (physchem [7]; simulated gastric fluid): 204 µM; solubility thermodynamic at 24 h (physchem [8]; simulated intestinal fluid): 0.759 µM
C[C@@H]1[C@H](O)[C@@H](C)/C=C/C=C/C=C/C=C/C=C/C=C/C=C/[C@H](O[C@@H]2O[C@H](C)[C@@H](O)[C@H](N)[C@@H]2O)C[C@@H]2O[C@](O)(C[C@@H](O)C[C@@H](O)[C@H](O)CC[C@@H](O)C[C@@H](O)CC(=O)O[C@H]1C)C[C@H](O)[C@H]2C(=O)O [AMPHOTERICIN B],21.9,21.9,13.5,4.37,81.3,solubility thermodynamic at 24 h (physchem [5]; water): 22.9 µM; solubility thermodynamic at 24 h (physchem [6]; PBS): 26.3 µM; solubility thermodynamic at 24 h (physchem [7]; simulated gastric fluid): 11.2 µM; solubility thermodynamic at 24 h (physchem [8]; simulated intestinal fluid): 3.8 µM
CC(C)(C#N)c1cc(Cn2cncn2)cc(C(C)(C)C#N)c1 [ANASTROZOLE],0.339,0.339,1.7,1.7,–,solubility thermodynamic at 24 h (physchem [5]; water): 0.148 µM; solubility thermodynamic at 24 h (physchem [6]; PBS): 0.105 µM; solubility thermodynamic at 24 h (physchem [7]; simulated gastric fluid): 0.178 µM; solubility thermodynamic at 24 h (physchem [8]; simulated intestinal fluid): 0.692 µM
CN1C(=N)N(C)/C(=C/c2c[nH]c3ccccc23)C1=O [APLYSINOPSIN],31.6,56.2,79.4,0.389,–,–
CC(=O)Oc1ccccc1C(=O)O [ASPIRIN],–,–,–,–,–,solubility thermodynamic at 4 h (physchem [2]; buffer): 5010 µM; solubility thermodynamic at 4 h (physchem [3]; simulated gi fluid): 3310 µM; solubility thermodynamic at 4 h (physchem [4]; simulated gi fluid): 2.75 µM; solubility thermodynamic at 24 h (physchem [7]; simulated gi fluid): 1450 µM; solubility thermodynamic at 24 h (physchem [8]; simulated gi fluid): 3.72 µM
COc1ccc2cc3[n+](cc2c1OC)CCc1cc2c(cc1-3)OCO2.[Cl-] [BERBERINE CHLORIDE],214,21.4,33.9,398,537,–
CC(C)=CC[C@H]1C[C@@]23C[C@@H](CC=C(C)C)C(C)(C)[C@@](CC=C(C)C)(C(=O)C(C(=O)c4ccc(O)c(O)c4)=C2OC1(C)C)C3=O [CAMBOGIN],0.851,0.851,0.851,0.851,–,–
CC[C@H]1OC(=O)[C@H](C)[C@@H](O[C@H]2C[C@@](C)(OC)[C@@H](O)[C@H](C)O2)[C@H](C)[C@@H](O[C@@H]2O[C@H](C)C[C@H](N(C)C)[C@H]2O)[C@](C)(OC)C[C@@H](C)C(=O)[C@H](C)[C@@H](O)[C@]1(C)O [CLARITHROMYCIN],0.676,0.676,0.676,1.35,0.0447,–
Clc1ccccc1C(c1ccccc1)(c1ccccc1)n1ccnc1 [CLOTRIMAZOLE],10,11.5,5.75,0.288,–,–
CC(/C=C/C=C(\C)C(=O)O[C@@H]1O[C@H](CO[C@@H]2O[C@H](CO)[C@@H](O)[C@H](O)[C@H]2O)[C@@H](O)[C@H](O)[C@H]1O)=C\C=C\C=C(C)\C=C\C=C(/C)C(=O)O[C@@H]1O[C@H](CO[C@@H]2O[C@H](CO)[C@@H](O)[C@H](O)[C@H]2O)[C@@H](O)[C@H](O)[C@H]1O [CROCIN],155,155,155,155,–,–
CC(=O)O[C@@]12CO[C@@H]1C[C@H](O)[C@@]1(C)C(=O)[C@H](O)C3=C(C)[C@@H](OC(=O)[C@H](O)[C@@H](NC(=O)OC(C)(C)C)c4ccccc4)C[C@@](O)([C@@H](OC(=O)c4ccccc4)[C@H]21)C3(C)C.O.O.O [DOCETAXEL],5.37,2.45,0.617,1.23,0.871,–
CCCCCCCCCCCC1=C(O)C(=O)C=C(O)C1=O [EMBELIN],1.7,1.7,1.7,1.7,1.02,–
OC(Cn1cncn1)(Cn1cncn1)c1ccc(F)cc1F [FLUCONAZOLE],0.324,0.324,1.62,0.324,0.331,solubility thermodynamic at 24 h (physchem [5]; water): 0.537 µM; solubility thermodynamic at 24 h (physchem [6]; PBS): 0.468 µM; solubility thermodynamic at 24 h (physchem [7]; simulated gastric fluid): 0.851 µM; solubility thermodynamic at 24 h (physchem [8]; simulated intestinal fluid): 0.891 µM
CCC(=O)O[C@]1(C(=O)SCF)[C@H](C)C[C@H]2[C@@H]3C[C@H](F)C4=CC(=O)C=C[C@]4(C)[C@@]3(F)[C@@H](O)C[C@@]21C [FLUTICASONE PROPIONATE],0.2,0.2,1,1,0.102,solubility thermodynamic at 24 h (physchem [5]; water): 0.0195 µM; solubility thermodynamic at 24 h (physchem [6]; PBS): 0.01 µM; solubility thermodynamic at 24 h (physchem [7]; simulated gastric fluid): 0.2 µM; solubility thermodynamic at 24 h (physchem [8]; simulated intestinal fluid): 0.407 µM
C=C(C)[C@@H](CC=C(C)C)C[C@@]12C[C@@H](CC=C(C)C)C(C)(C)[C@@](CC=C(C)C)(C(=O)C(C(=O)c3ccc(O)c(O)c3)=C1O)C2=O [GARCINOL],1.66,1.66,0.832,6.61,–,–
NNC(=O)c1ccncc1 [ISONIAZID],589,589,589,288,–,–
COc1c2occc2c(OC)c2c(=O)cc(C)oc12 [KHELLIN],77.6,77.6,30.9,30.9,97.7,solubility thermodynamic at 24 h (physchem [5]; water): 100 µM; solubility thermodynamic at 24 h (physchem [6]; PBS): 72.4 µM; solubility thermodynamic at 24 h (physchem [7]; simulated gastric fluid): 97.7 µM; solubility thermodynamic at 24 h (physchem [8]; simulated intestinal fluid): 58.9 µM
O=c1c2cc(O)c(O)cc2oc2cc(O)c([C@@H]3O[C@H](CO)[C@@H](O)[C@H](O)[C@H]3O)c(O)c12 [MANGIFERIN],47.9,47.9,19.1,19.1,–,–
Cc1cnc(NC(=O)C2=C(O)c3ccccc3S(=O)(=O)N2C)s1 [MELOXICAM],–,–,–,–,2.29,solubility thermodynamic at 4 h (physchem [1]; buffer): 11.5 µM; solubility thermodynamic at 4 h (physchem [2]; buffer): 35.5 µM; solubility thermodynamic at 4 h (physchem [3]; simulated gi fluid): 1.41 µM; solubility thermodynamic at 4 h (physchem [4]; simulated gi fluid): 22.9 µM; solubility thermodynamic at 24 h (physchem [5]; buffer): 11 µM; solubility thermodynamic at 24 h (physchem [6]; buffer): 21.9 µM; solubility thermodynamic at 24 h (physchem [7]; simulated gi fluid): 0.0407 µM; solubility thermodynamic at 24 h (physchem [8]; simulated gi fluid): 28.8 µM
COc1ccc2[nH]c([S+]([O-])Cc3ncc(C)c(OC)c3C)nc2c1 (stereo not given) [OMEPRAZOLE],229,229,437,57.5,145,–
O=C(/C=C/C=C/c1ccc2c(c1)OCO2)N1CCCCC1 [PIPERINE],70.8,28.2,43.7,70.8,14.1,–
NC(=O)c1cnccn1 [PYRAZINAMIDE],5750,5370,5620,7940,–,–
CC[C@H]1OC(=O)[C@H](C)[C@@H](O[C@H]2C[C@@](C)(OC)[C@@H](O)[C@H](C)O2)[C@H](C)[C@@H](O[C@@H]2O[C@H](C)C[C@H](N(C)C)[C@H]2O)[C@](C)(O)C[C@@H](C)/C(=N\OCOCCOC)[C@H](C)[C@@H](O)[C@]1(C)O [ROXITHROMYCIN],0.603,1.2,0.603,0.603,–,–
[H]/N=C(/N)N[C@H]1[C@H](O)[C@@H](O)[C@H](O[C@@H]2O[C@@H](C)[C@](O)(C=O)[C@H]2O[C@@H]2O[C@@H](CO)[C@H](O)[C@@H](O)[C@@H]2NC)[C@@H](N/C(N)=N\[H])[C@@H]1O [STREPTOMYCIN],0.851,0.851,0.851,0.851,–,–
CN(C/C=C/C#CC(C)(C)C)Cc1cccc2ccccc12.Cl [TERBINAFINE HYDROCHLORIDE],245,0.302,245,1.51,–,solubility thermodynamic at 24 h (physchem [5]; water): 229 µM; solubility thermodynamic at 24 h (physchem [6]; PBS): 0.676 µM; solubility thermodynamic at 24 h (physchem [7]; simulated gastric fluid): 155 µM; solubility thermodynamic at 24 h (physchem [8]; simulated intestinal fluid): 0.617 µM
CCS(=O)(=O)CCn1c([N+](=O)[O-])cnc1C [TINIDAZOLE],324,603,162,324,–,–
